# According to PubChem BioAssay AID248 (DTP/NCI, 2004):
# “And” between values parts separate entries of the source, which are not always exact repeats. Equal values may be shown once. Inconclusive results and toxic doses are left out. Square brackets hold non-standard residues; d marks the D form. Peptide text beside a SMILES is read from it. Ac5c = NC1(C(=O)O)CCCC1
# Test system: L1210 leukemia ip in BDF1 mice, survival T/C
# Assay: NCI In Vivo Anticancer Drug Screen. Data for tumor model L1210 Leukemia (intraperitoneal) in B6D2F1 (BDF1) mice
# Conditions: endpoint: mean survival time, higher = longer survival
# Method: The antitumor activity of compounds was measured in mice bearing transplantable tumors. Survival or tumor size were measured and the results are expressed as the measurement made in the treated group (T) divided by the measurement made in the vehicle treated control group (C). The tumor model used in this assay is L1210 Leukemia (intraperitoneal) in B6D2F1 (BDF1) mice
# [1] = dose: 100.0 mg/kg/injection, schedule: Q01DX001 (ip), vehicle: saline with Tween-80
# [2] = dose: 100.0 mg/kg/injection, schedule: Q01DX009 (ip), vehicle: saline with Tween-80
# [3] = dose: 100.0 mg/kg/injection, schedule: Q04DX003 (ip), vehicle: saline with Tween-80
# [4] = dose: 200.0 mg/kg/injection, schedule: Q04DX003 (ip), vehicle: saline with Tween-80
# [5] = dose: 200.0 mg/kg/injection, schedule: Q01DX009 (ip), vehicle: saline with Tween-80
# [6] = dose: 400.0 mg/kg/injection, schedule: Q01DX009 (ip), vehicle: saline with Tween-80
# [7] = dose: 400.0 mg/kg/injection, schedule: Q04DX003 (ip), vehicle: saline with Tween-80
# [8] = dose: 100.0 mg/kg/injection, schedule: Q01DX009 (ip), vehicle: Klucel (hydroxypropylcellulose) (HPC)
# [9] = dose: 200.0 mg/kg/injection, schedule: Q01DX009 (ip), vehicle: Klucel (hydroxypropylcellulose) (HPC)
# [10] = dose: 100.0 mg/kg/injection, schedule: Q04DX003 (ip), vehicle: Klucel (hydroxypropylcellulose) (HPC)
# [11] = dose: 200.0 mg/kg/injection, schedule: Q04DX003 (ip), vehicle: Klucel (hydroxypropylcellulose) (HPC)
# [12] = dose: 400.0 mg/kg/injection, schedule: Q01DX009 (ip), vehicle: Klucel (hydroxypropylcellulose) (HPC)
# [13] = dose: 400.0 mg/kg/injection, schedule: Q04DX003 (ip), vehicle: Klucel (hydroxypropylcellulose) (HPC)
smiles,measurement,setting,value
O=C(C#CC(=O)[O][Sn]([c]1ccccc1)([c]1ccccc1)[c]1ccccc1)[O][Sn]([c]1ccccc1)([c]1ccccc1)[c]1ccccc1,T/C,"dose: 6.25 mg/kg/injection, schedule: Q01DX001 (ip), vehicle: saline",90 % of control
same,T/C,"dose: 12.5 mg/kg/injection, schedule: Q01DX001 (ip), vehicle: saline",95 % of control
same,T/C,"dose: 25.0 mg/kg/injection, schedule: Q01DX001 (ip), vehicle: saline",100 % of control
same,T/C,"dose: 35.0 mg/kg/injection, schedule: Q01DX001 (ip), vehicle: Klucel (hydroxypropylcellulose) (HPC)",91 % of control
C=CCc1ccc2c(C)cc[n+](C)c2c1O,T/C,"dose: 100.0 mg/kg/injection, schedule: Q01DX001 (ip), vehicle: saline",91 % of control
same,T/C,"dose: 200.0 mg/kg/injection, schedule: Q01DX001 (ip), vehicle: saline",93 % of control
Nc1[nH]c(=O)ncc1-c1ccccc1Cl,T/C,"dose: 25.0 mg/kg/injection, schedule: Q01DX009 (ip), vehicle: saline with Tween-80",88 % of control
same,T/C,"dose: 25.0 mg/kg/injection, schedule: Q04DX002 (ip), vehicle: saline with Tween-80",92 % of control and 100 % of control
same,T/C,"dose: 25.0 mg/kg/injection, schedule: Q04DX003 (ip), vehicle: saline with Tween-80",93 % of control
same,T/C,"dose: 50.0 mg/kg/injection, schedule: Q01DX001 (ip), vehicle: saline with Tween-80",101 % of control
same,T/C,"dose: 50.0 mg/kg/injection, schedule: Q01DX009 (ip), vehicle: saline with Tween-80",91 % of control
same,T/C,"dose: 50.0 mg/kg/injection, schedule: Q04DX002 (ip), vehicle: saline with Tween-80",101 % of control and 103 % of control
same,T/C,"dose: 50.0 mg/kg/injection, schedule: Q04DX003 (ip), vehicle: saline with Tween-80",92 % of control
same,T/C,[1],101 % of control
same,T/C,[2],94 % of control and 91 % of control
same,T/C,[3],103 % of control
same,T/C,[4],101 % of control
CCO/C=C(\C#N)C(=O)O,T/C,[2],95 % of control
same,T/C,[3],98 % of control
same,T/C,[5],98 % of control
same,T/C,[4],104 % of control
same,T/C,[6],102 % of control
same,T/C,[7],100 % of control
O=C(O)c1cc(N=C2C=CC(=C(c3ccccc3)c3ccc(Nc4ccc(Cl)c(C(=O)O)c4)cc3)C=C2)ccc1Cl,T/C,"dose: 100.0 mg/kg/injection, schedule: Q01DX001 (ip), vehicle: other",97 % of control
same,T/C,[8],105 % of control
same,T/C,"dose: 200.0 mg/kg/injection, schedule: Q01DX001 (ip), vehicle: other",100 % of control
same,T/C,[9],97 % of control
same,T/C,"dose: 400.0 mg/kg/injection, schedule: Q01DX001 (ip), vehicle: other",103 % of control
O=c1cc(/C=N/O)c2cccc3c2n1CCC3,T/C,[1],100 % of control
same,T/C,"dose: 200.0 mg/kg/injection, schedule: Q01DX001 (ip), vehicle: saline with Tween-80",91 % of control
same,T/C,"dose: 400.0 mg/kg/injection, schedule: Q01DX001 (ip), vehicle: saline with Tween-80",94 % of control
CC(=O)N(C(C)=O)N(C(C)=O)C(=O)c1ccccn1,T/C,"dose: 100.0 mg/kg/injection, schedule: Q01DX001 (ip), vehicle: water",106 % of control
same,T/C,"dose: 200.0 mg/kg/injection, schedule: Q01DX001 (ip), vehicle: water",101 % of control
same,T/C,"dose: 400.0 mg/kg/injection, schedule: Q01DX001 (ip), vehicle: water",106 % of control
CCCCN/C(C)=C/C(=O)/C=C(\C)NCCCC,T/C,[8],94 % of control
same,T/C,[10],117 % of control
same,T/C,[9],110 % of control
same,T/C,[11],96 % of control
same,T/C,[12],95 % of control
same,T/C,[13],100 % of control
CCc1ccc(NC(=O)c2c(Br)c(Br)c(Br)c(Br)c2C(=O)O)cc1,T/C,"dose: 25.0 mg/kg/injection, schedule: Q01DX009 (ip), vehicle: Klucel (hydroxypropylcellulose) (HPC)",96 % of control
same,T/C,"dose: 50.0 mg/kg/injection, schedule: Q01DX009 (ip), vehicle: Klucel (hydroxypropylcellulose) (HPC)",104 % of control
same,T/C,[8],101 % of control and 107 % of control
CC(=O)OCC1OC(n2cc(C)c(=O)[nH]c2=O)C(NC(=O)C(Cl)(Cl)Cl)C(OC(C)=O)C1OC(C)=O (stereo not drawn),T/C,"dose: 50.0 mg/kg/injection, schedule: Q01DX001 (ip), vehicle: carboxymethylcellulose (CMC)",105 % of control
same,T/C,"dose: 100.0 mg/kg/injection, schedule: Q01DX001 (ip), vehicle: carboxymethylcellulose (CMC)",96 % of control
same,T/C,"dose: 200.0 mg/kg/injection, schedule: Q01DX001 (ip), vehicle: carboxymethylcellulose (CMC)",100 % of control
same,T/C,"dose: 400.0 mg/kg/injection, schedule: Q01DX001 (ip), vehicle: carboxymethylcellulose (CMC)",103 % of control
COc1cccc(NC(=O)Nc2cccc(Cl)c2)c1,T/C,[8],94 % of control
same,T/C,[12],95 % of control
CC(=O)Nc1nc(C)c(CCCOc2ccc([N+](=O)[O-])cc2)c(Cl)n1,T/C,"dose: 100.0 mg/kg/injection, schedule: Q01DX001 (ip), vehicle: Klucel (hydroxypropylcellulose) (HPC)",100 % of control
same,T/C,"dose: 200.0 mg/kg/injection, schedule: Q01DX001 (ip), vehicle: Klucel (hydroxypropylcellulose) (HPC)",97 % of control
same,T/C,"dose: 400.0 mg/kg/injection, schedule: Q01DX001 (ip), vehicle: Klucel (hydroxypropylcellulose) (HPC)",97 % of control
NCC(=O)NC1(C(=O)O)CCCC1 (H-Gly-[Ac5c]-OH),T/C,"dose: 16.0 mg/kg/injection, schedule: Q01DX Z (ip), vehicle: carboxymethylcellulose (CMC)",104 % of control
same,T/C,"dose: 24.0 mg/kg/injection, schedule: Q01DX Z (ip), vehicle: carboxymethylcellulose (CMC)",109 % of control
same,T/C,"dose: 30.0 mg/kg/injection, schedule: Q01DX Z (ip), vehicle: other",103 % of control
same,T/C,"dose: 36.0 mg/kg/injection, schedule: Q01DX Z (ip), vehicle: carboxymethylcellulose (CMC)",118 % of control
same,T/C,"dose: 54.0 mg/kg/injection, schedule: Q01DX017 (ip), vehicle: saline",157 % of control
same,T/C,"dose: 54.0 mg/kg/injection, schedule: Q01DX Z (ip), vehicle: saline",121 % of control
same,T/C,"dose: 66.0 mg/kg/injection, schedule: Q01DX Z (ip), vehicle: saline",115 % of control
same,T/C,"dose: 100.0 mg/kg/injection, schedule: Q04DX003 (ip), vehicle: saline",103 % of control
same,T/C,"dose: 120.0 mg/kg/injection, schedule: Q01DX Z (ip), vehicle: saline",152 % of control
same,T/C,"dose: 150.0 mg/kg/injection, schedule: Q01DX Z (ip), vehicle: saline",156 % of control
same,T/C,"dose: 180.0 mg/kg/injection, schedule: Q01DX Z (ip), vehicle: carboxymethylcellulose (CMC)",105 % of control
same,T/C,"dose: 200.0 mg/kg/injection, schedule: Q04DX003 (ip), vehicle: saline",124 % of control
same,T/C,"dose: 225.0 mg/kg/injection, schedule: Q01DX Z (ip), vehicle: saline",115 % of control
same,T/C,"dose: 240.0 mg/kg/injection, schedule: Q01DX Z (ip), vehicle: other",124 % of control
same,T/C,"dose: 400.0 mg/kg/injection, schedule: Q04DX003 (ip), vehicle: saline",155 % of control
same,T/C,"dose: 480.0 mg/kg/injection, schedule: Q01DX Z (ip), vehicle: other",88 % of control
CC(C)(C)C1CCC(NC(=O)CCl)CC1 (stereo not drawn),T/C,"dose: 50.0 mg/kg/injection, schedule: Q04DX003 (ip), vehicle: Klucel (hydroxypropylcellulose) (HPC)",98 % of control
same,T/C,[8],103 % of control
same,T/C,[10],96 % of control
same,T/C,[11],102 % of control
same,T/C,[12],94 % of control
same,T/C,[13],104 % of control
O=S(O)c1ccccc1,T/C,"dose: 100.0 mg/kg/injection, schedule: Q01DX009 (ip), vehicle: saline",96 % of control
same,T/C,"dose: 200.0 mg/kg/injection, schedule: Q01DX009 (ip), vehicle: saline",105 % of control
same,T/C,"dose: 400.0 mg/kg/injection, schedule: Q01DX009 (ip), vehicle: saline",103 % of control
CCCCCC1SC1CC1SC1CCCCCCCC(=O)NCCCOCCOCCOCC (stereo not drawn),T/C,[2],121 % of control
same,T/C,[5],104 % of control
ClC1(c2ccccc2)c2ccccc2C(Cl)(c2ccccc2)c2ccccc21 (stereo not drawn),T/C,"dose: 100.0 mg/kg/injection, schedule: Q04DX002 (ip), vehicle: saline with Tween-80",98 % of control
same,T/C,"dose: 200.0 mg/kg/injection, schedule: Q04DX002 (ip), vehicle: saline with Tween-80",92 % of control
same,T/C,"dose: 400.0 mg/kg/injection, schedule: Q04DX002 (ip), vehicle: saline with Tween-80",92 % of control
NC(=O)CC(NC(=O)OCc1ccccc1)C(=O)OCc1ccccc1 (stereo not drawn),T/C,[2],106 % of control
same,T/C,[3],96 % of control
same,T/C,[5],95 % of control
same,T/C,[4],96 % of control
same,T/C,[6],93 % of control
same,T/C,[7],91 % of control
